Test system: biofilms formed in a paper machine
Assay: Inactivation of biofilms pre-grown in situ on sampler pegs; re-growth of new biofilm in the culturing step, safranin staining, visual evaluation
Format: cell-based
Details: for formation of new biofilm during the culturing step after treatment of the biofilm on the pegs: biofilm grown 68 h in clear filtrate silo of neutral fine paper machine at 52° C., treatment 1 to 50 ppm (active substance), stagnant 52° C., 2 h, culturing in R2-broth 250 rpm, 52° C., 17 h, safranin, evaluated visually
Text: In this experiment one embodiment of the sampler device of the invention is used to illustrate the method of the invention for determining the effect of several anti-biofilm agents in inactivation of biofilms formed in a paper machine.
In this embodiment the sampler device comprises 12 stainless steel pegs fixed from one end on a stainless steel lid. The lid with the pegs is presented in FIG. 1 together with a treatment plate with 12 wells adapted to receive the pegs when the lid is placed on the plate. Suitably the lid was designed to be complementary with the commercially available 12-well polystyrene plates.
Three sampler lids are immersed in the clear filtrate silo of a neutral fine paper machine and allowed to hang immersed in said filtrate at the temperature of 52° C. of the process water, for 68 h. Then the samplers are removed, rinsed once with sterilized tap water, and each lid is placed on a 12-well treatment plate so that the pegs with biofilms formed in situ in the process on the surface thereof are immersed in the treatment solution within the wells, each peg in one well, while being supported at the one end by the lid.
Each well of a treatment plate contains 3.5 ml of sterilized tap water alone (reference samples) or 3.5 ml of sterilized tap water together with an anti-biofilm agent at a concentration of 1 to 50 ppm (active substance). The maximum volume of the wells is used so that almost the whole length of the pegs will be exposed to the anti-biofilm agents (the treatment solution). The tested anti-biofilm agents are BCDMH (Bromo-chloro-5,5-dimethyl hydantoine), a mixture of 5-chloro-2-methyl-4-isothiazolin-3-one and 2-methyl-4-isothiazolin-3-one, THPS (tetrakis(hydroxy-methyl)phosphomiumsulphate, DBNPA (2,2-dibromo-2-cyanoacetamide), glutar-aldehyde, MBT (methylene-bis(thiocyanate)), BNPD (bromo-2-nitropropan-1,3-diol), all of which are commercially available.
The anti-biofilm treatment step is carried out by incubating the plates with the lid thereon stagnant at 52° C. for 2 h. After the treatment step the lids are removed from the plate and rinsed three times with sterilized tap water and then placed on the 12-well culturing plates, which are similar to the treatment plates, but the wells contain 2.5 ml of sterile R2-broth (Difco). The culturing plates (plate+lid with the pegs immersed in the wells) are shaken at 250 rpm, at 52° C., for 17 h.
Finally, the pegs and growth media are removed from the wells, the wells are rinsed once with tap water and the microbes adhered on the walls of the wells are stained with safranin. The amount of biofilm produced by the microbes that survived alive through the treatment step with anti-biofilm agents is evaluated visually.

Row | Compound | formation of new biofilm during the culturing step after treatment of the biofilm on the pegs | lowest concentration of anti-biofilm agent achieving prevention of re-growth of new biofilm in the culturing step (treatment 2 h at 52° C., culturing 17 h at 52° C. in R2-broth, concentration as active substance)
1 | CC1(C)C(=O)N(Br)C(=O)N1Cl [BCDMH, Bromo-chloro-5,5-dimethyl hydantoine] | no new biofilm is formed | –
2 | O=[N+]([O-])C(Br)(CO)CO [BNPD, bromo-2-nitropropan-1,3-diol] | still capable to form new biofilm | –
3 | N#CC(Br)(Br)C(N)=O [DBNPA, 2,2-dibromo-2-cyanoacetamide] | no new biofilm is formed | 5 ppm
4 | N#CSCSC#N [MBT, methylene-bis(thiocyanate)] | still capable to form new biofilm | –
5 | O=S(=O)([O-])[O-].OC[P+](CO)(CO)CO.OC[P+](CO)(CO)CO [THPS, tetrakis(hydroxy-methyl)phosphomiumsulphate] | no new biofilm is formed | –
6 | O=CCCCC=O [glutaraldehyde] | no new biofilm is formed | –

From US7829305B2, “Method for monitoring the presence of biofilmforming microorganisms in paper industry” (Kemira Oyj, priority 2003, dated 2010)
